Test system: Acinetobacter baumannii (Ab23)
Assay: MIC shift assay of antibiotics (broth microdilution)
Type: cell-based
Details: compound concentration 1 μM; fold shift of colistin MIC; nc = no changeover or no shift
Outline: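 Broth microdilution MIC shift assay against Acinetobacter baumannii. Overnight cultures in cation-adjusted Mueller Hinton broth at 37° C. were sub-cultured 1:200, grown to OD600=0.5 to 0.8, diluted to OD600=0.01, and added (50 μL) to wells holding 50 μL of 2× antibiotic stocks for a starting OD600 of 0.005. After 18 to 20 h at 37° C. with shaking, OD600 was read to obtain MICs.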

For `FC(F)(F)c1cccc(-c2c[nH]c3cc(Cl)c(Cl)cc23)c1` [compound 431], the “colistin MIC shift, Ab23 at (compd concentration)” value (“colistin MIC shift, Ab23” below) was 4x (1 μM);.

Same assay, conditions: compound concentration 2 μM; fold shift of colistin MIC; nc = no changeover or no shift

With `FC(F)(F)c1cccc(-c2c[nH]c3cc(Cl)c(Cl)cc23)c1` [compound 431] the “colistin MIC shift, Ab23” value was “≧16x (2 μM)”.
For `CC(C)(c1c[nH]c2cc(Cl)c(Cl)cc12)c1c[nH]c2cc(Cl)c(Cl)cc12` [compound 440], the “colistin MIC shift, Ab23” value was “≧16x”.
With `FC(F)(F)c1ccc2c(-c3ccc(Cl)c(Cl)c3)n[nH]c2c1` [compound 441] the “colistin MIC shift, Ab23” value was “≧16x”.

First: Clc1ccc(-c2c[nH]c3cc(Cl)c(Cl)cc23)cc1Cl [compound 432]
Second: FC(F)(F)c1cc(-c2c[nH]c3cc(Cl)c(Cl)cc23)ccc1Cl [compound 436]
The “colistin MIC shift, Ab23” value of the first is higher: 8x for the first, 4x for the second.

Same assay, conditions: compound concentration 4 μM; fold shift of colistin MIC; nc = no changeover or no shift

First: FC(F)(F)c1cc(Cl)cc(-c2c[nH]c3cc(Cl)c(Cl)cc23)c1 [compound 434]
Second: FC(F)(F)c1cccc(-c2ccc3[nH]cc(-c4ccc(Cl)c(Cl)c4)c3c2)c1 [compound 438]
The “colistin MIC shift, Ab23” value of the first is higher: 32x for the first, 2x for the second.

`CCN(CC)CCCC(C)Nc1nc(-c2ccc3cc(Cl)c(Cl)cc3c2)nc2c(C)cccc12` (stereo not shown) [compound 443] and `CCN(CC)CCCC(C)Nc1nc(-c2cccc(-c3cc(Cl)cc(Cl)c3)c2)nc2c(C)cccc12` (stereo not shown) [compound 469] are the same in “colistin MIC shift, Ab23” value: 16x for the first, 16x for the second.

First: Cc1cccc2c(NCCCN(C)C)nc(-c3ccc4cc(Cl)c(Cl)cc4c3)nc12 [compound 444]
Second: Cc1cccc2c(NCCCN(C)C)nc(-c3cccc(-c4cc(Cl)cc(Cl)c4)c3)nc12 [compound 470]
The “colistin MIC shift, Ab23” value of the first is higher: 16x for the first, 2x for the second.

Compared with `CCN(CC)CCCC(C)Nc1nc(-c2cc(Cc3ccccc3)c3ccccc3c2)nc2c(C)cccc12` (stereo not shown) [compound 447], `CCN(CC)CCCC(C)Nc1nc(-c2cccc(-c3cccc(Cl)c3Cl)c2)nc2c(C)cccc12` (stereo not shown) [compound 483] is higher in “colistin MIC shift, Ab23” value: 4x for the first, 16x for the second.

First: Cc1cccc2c(NCCCN3CCNCC3)nc(-c3cc(Br)cc(C(F)(F)F)c3)nc12 [compound 462]
Second: Cc1cccc2c(NCCCN(C)C)nc(-c3cc(F)cc(C(F)(F)F)c3)nc12 [compound 508]
The “colistin MIC shift, Ab23” value of the first is higher: 64x for the first, 8x for the second.

Going from `COc1ccc2c(NCCCN(C)C)nc(/C=C/c3ccc(Cl)c(Cl)c3)nc2c1C` [compound 467, (E)-N^1-(2-(3,4-dichlorostyryl)-7-methoxy-8-methylquinazolin-4-yl)-N^3,N^3-dimethylpropane-1,3-diamine] to `Cc1c(Cl)ccc2c(NCCCN(C)C)nc(-c3cc(Br)cc(C(F)(F)F)c3)nc12` [compound 511], the “colistin MIC shift, Ab23” value rises from 16x to 64x.

Compared with `CCN(CC)CCCC(C)Nc1nc(-c2cccc(-c3ccc(C(F)(F)F)cc3F)c2)nc2c(C)cccc12` (stereo not shown) [compound 471], `CCN(CC)CCCC(C)Nc1nc(-c2cccc(-c3cc(C(F)(F)F)ccc3F)c2)nc2c(C)cccc12` (stereo not shown) [compound 473] is higher in “colistin MIC shift, Ab23” value: 8x for the first, 16x for the second.

First: Cc1cccc2c(NCCCN(C)C)nc(-c3cccc(-c4ccc(C(F)(F)F)cc4F)c3)nc12 [compound 472]
Second: Cc1cccc2c(NCCCN(C)C)nc(-c3cccc(-c4cc(C(F)(F)F)ccc4F)c3)nc12 [compound 474]
The “colistin MIC shift, Ab23” value of the first is lower: 16x for the first, 32x for the second.

`CCN(CC)CCCC(C)Nc1nc(-c2cccc(-c3ccc(C(F)(F)F)c(F)c3)c2)nc2c(C)cccc12` (stereo not shown) [compound 476] and `CCN(CC)CCCC(C)Nc1nc(-c2cc(-c3cccc(C(F)(F)F)c3)cc(C(F)(F)F)c2)nc2c(C)cccc12` (stereo not shown) [compound 493] are the same in “colistin MIC shift, Ab23” value: 16x for the first, 16x for the second.

Compared with `CNCCCNc1nc(-c2cccc(-c3cccc(C(F)(F)F)c3)c2)nc2c(C)cccc12` [compound 478], `Cc1cccc2c(NCCCN(C)C)nc(-c3cc(-c4cccc(C(F)(F)F)c4)cc(C(F)(F)F)c3)nc12` [compound 494] is higher in “colistin MIC shift, Ab23” value: 4x for the first, 16x for the second.

Compared with `CCN(CC)CCCC(C)Nc1nc(-c2cccc(-c3ccccc3)c2)nc2cc(C(F)(F)F)ccc12` (stereo not shown) [compound 479], `CN(C)CCCNc1nc(-c2cccc(-c3ccccc3)c2)nc2cc(C(F)(F)F)ccc12` [compound 480] is lower in “colistin MIC shift, Ab23” value: 8x for the first, 4x for the second.

Going from `CCN(CC)CCCC(C)Nc1nc(-c2cccc(-c3cc(C(F)(F)F)ccc3F)c2)nc2cc(C(F)(F)F)ccc12` (stereo not shown) [compound 481] to `CN(C)CCCNc1nc(-c2cccc(-c3cc(C(F)(F)F)ccc3F)c2)nc2cc(C(F)(F)F)ccc12` [compound 482], the “colistin MIC shift, Ab23” value rises from 8x to 32x.

`Cc1cccc2c(NCCCN(C)C)nc(-c3cccc(-c4cccc(Cl)c4Cl)c3)nc12` [compound 484] and `CN(C)CCCNc1nc(-c2cccc(-c3cccc(Cl)c3Cl)c2)nc2c(Cl)cccc12` [compound 490] are the same in “colistin MIC shift, Ab23” value: 16x for the first, 16x for the second.

First: CN(C)CCCNc1nc(-c2cccc(-c3ccccc3)c2)nc2c(Cl)cccc12 [compound 486]
Second: CN(C)CCCNc1nc(-c2cccc(-c3ccc(Cl)c(Cl)c3)c2)nc2c(Cl)cccc12 [compound 488]
The “colistin MIC shift, Ab23” value of the first is lower: 4x for the first, 32x for the second.

Going from `CN(C)CCCNc1nc(-c2cccc(-c3ccc(C(F)(F)F)c(F)c3)c2)nc2c(Cl)cccc12` [compound 489] to `CN(C)CCCNc1nc(-c2cccc(-c3cc(F)cc(C(F)(F)F)c3)c2)nc2c(Cl)cccc12` [compound 491], the “colistin MIC shift, Ab23” value rises from 16x to 32x.

`CCN(CC)CCCC(C)Nc1nc(-c2cc(-c3ccc(C(F)(F)F)cc3)cc(C(F)(F)F)c2)nc2c(C)cccc12` (stereo not shown) [compound 495] and `Cc1cccc2c(NCCCN(C)C)nc(-c3cc(-c4ccc(C(F)(F)F)cc4)cc(C(F)(F)F)c3)nc12` [compound 496] are the same in “colistin MIC shift, Ab23” value: 16x for the first, 16x for the second.

Going from `Cc1cccc2c(N(C)CCCN(C)C)nc(-c3cc(Br)cc(C(F)(F)F)c3)nc12` [compound 502] to `Cc1cc(-c2nc(NCCCN(C)C)c3cccc(C)c3n2)cc(C(F)(F)F)c1` [compound 507], the “colistin MIC shift, Ab23” value falls from 32x to 8x.

First: Cc1cccc2c(NCCCN(C)C)nc(-c3cc(-c4ccccc4C(F)(F)F)cc(C(F)(F)F)c3)nc12 [compound 509]
Second: Cc1cccc2c(NCCCN(C)C)nc(-c3cc(-c4cccnc4)cc(C(F)(F)F)c3)nc12 [compound 510]
The “colistin MIC shift, Ab23” value of the first is higher: 64x for the first, 16x for the second.

With `Cc1cccc2c(NCCCN(C)C)nc(-c3cc(Br)c4ccccc4c3)nc12` [compound 446] the “colistin MIC shift, Ab23” value was 8-16x.
`CCN(CC)CCCC(C)Nc1nc(-c2cccc(-c3cccc(C(F)(F)F)c3)c2)nc2c(C)cccc12` (stereo not shown) [compound 465] was tested, and the “colistin MIC shift, Ab23” value was 8-16x.
`Cc1cccc2c(NCCCN(C)C)nc(-c3cccc(-c4cccc(C(F)(F)F)c4)c3)nc12` [compound 466] was tested, and the “colistin MIC shift, Ab23” value was 8-16x.
For `Cc1cccc2c(NCCCN(C)C)nc(-c3cccc(-c4ccc(Cl)c(Cl)c4)c3)nc12` [compound 468], the “colistin MIC shift, Ab23” value was 16-32x.
For `CCN(CC)CCCC(C)Nc1nc(-c2cccc(-c3cc(F)cc(C(F)(F)F)c3)c2)nc2c(C)cccc12` (stereo not shown) [compound 475], the “colistin MIC shift, Ab23” value was 4-8x.

Same assay, conditions: compound concentration 8 μM; fold shift of colistin MIC; nc = no changeover or no shift

`CCN(CC)CCCC(C)Nc1nc(-c2cc(Br)c3ccccc3c2)nc2c(C)cccc12` (stereo not shown) [compound 445] and `Cc1cccc2c(NCCCN(C)C)nc(-c3cccc(C(F)(F)F)c3)nc12` [compound 499] are the same in “colistin MIC shift, Ab23” value: 16x for the first, 16x for the second.

In the case of `COc1cc(-c2nc(NCCCN(C)C)c3cccc(C)c3n2)cc(C(F)(F)F)c1` [compound 504], the “colistin MIC shift, Ab23” value was 16x.

Same assay, conditions: compound concentration 10 μM; fold shift of colistin MIC; nc = no changeover or no shift

Going from `FC(F)(F)c1cc(-c2c[nH]c3cc(Cl)c(Cl)cc23)cc(C(F)(F)F)c1` [compound 435] to `CN(C)CCCNc1nc(-c2cc(Br)cc(C(F)(F)F)c2)nc2c(F)cccc12` [compound 503], the “colistin MIC shift, Ab23” value falls from 16x to 4x.

Going from `Cc1cccc2c(NCCCN(C)C)nc(-c3cccc(Br)c3)nc12` [compound 455] to `Cc1cccc2c(NCCCN(C)C)nc(-c3ccc(Cl)c(Cl)c3)nc12` [compound 458], the “colistin MIC shift, Ab23” value rises from 4x to 16x.

`Cc1cccc2c(NCCCN3CCOCC3)nc(-c3cc(Br)cc(C(F)(F)F)c3)nc12` [compound 459] and `Cc1cccc2c(NCCCN(C)C)nc(-c3cc(N4CCOCC4)cc(C(F)(F)F)c3)nc12` [compound 501] are the same in “colistin MIC shift, Ab23” value: 8x for the first, 8x for the second.

Going from `CCN(CC)CCCC(C)Nc1nc(-c2cccc(-c3ccccc3)c2)nc2c(Cl)cccc12` (stereo not shown) [compound 485] to `CCN(CC)CCCC(C)Nc1nc(-c2cc(N3CCOCC3)cc(C(F)(F)F)c2)nc2c(C)cccc12` (stereo not shown) [compound 500], the “colistin MIC shift, Ab23” value falls from 8x to 4x.

Reference: patent US20160168140A1, “HETEROCYCLIC COMPOUNDS AS ANTIBIOTIC POTENTIATORS” (priority 2014, published 2016)
